According to the supplement of paper PMC11208160:
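Note: IS621 recombinase and bridge RNA in Escherichia coli cells.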

Test: recombinant barcode read abundance after kanamycin selection (control-corrected) (log10(CPM+1)); higher = more efficient recombination; sequences stand for … in AGTGCAGAGAAAATCGGCCAGTTTTCTCTGCCTGCAGTCCGCATGCCGT…AGATTTATGCAGCGGACTGCCTTTCTCCCAAAGTGATAAACCGGACAGTATCATGGACCGGTTTTCCCGGTAATCCGTATTTGCAAGGTTGGTTTCACT; site = the 11-nt target
Method in brief: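 In a pooled screen in E. coli, targets were paired with target-binding loops of the IS621 bridge RNA. Each oligo carried a promoter, a target, a barcode and the first 104 bridge RNA bases driven by J23119, and was Gibson-cloned into a vector holding the remaining 73 bp and a T7-inducible recombinase before co-electroporation with a donor plasmid. Duplicate platings went onto chloramphenicol/ampicillin LB agar as the control or onto chloramphenicol/ampicillin/kanamycin with 0.1 mM IPTG. Recombination efficiency is the averaged, control-corrected count per million of barcodes at recombinant junctions, given as log10(CPM+1).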
In the case of “GCACGGACTTGGGTTCTAACCTGTTGCAG (site GCAAGGACTCT)”, the “recombinant barcode read abundance (log10)” value is reported as 0.223. With “GCACGGACTTGGGTTCTAACCTGTTGCAG (site GCACGGACTCT)” the “recombinant barcode read abundance (log10)” value was 2.35. With “GCACGGACTTGGGTTCTAACCTGTTGCAG (site GCAGGGACTCT)” the “recombinant barcode read abundance (log10)” value was 0.164. In the case of “GCACGGACTTGGGTTCTAACCTGTTGCAG (site GCATGGACTCT)”, the “recombinant barcode read abundance (log10)” value is reported as 0.3. In the case of “GCACTAACTTGGGTTCTAACCTGTTGCCT (site GCACTAACTAG)”, the “recombinant barcode read abundance (log10)” value is reported as 1.14. In the case of “GCACTAACTTGGGTTCTAACCTGTTGCCT (site GCACTAGCTAC)”, the “recombinant barcode read abundance (log10)” value is reported as 0.216. With “GCAGGGACTTGGGTTCTAACCTGTTGCAG (site GCAAGGACTCT)” the “recombinant barcode read abundance (log10)” value was 0.883. With “GCAGGGACTTGGGTTCTAACCTGTTGCAG (site GCACGGACTCT)” the “recombinant barcode read abundance (log10)” value was 0.552. For “GCAGGGACTTGGGTTCTAACCTGTTGCAG (site GCAGGGACTCT)”, the “recombinant barcode read abundance (log10)” value was 1.72. With “GCAGGGACTTGGGTTCTAACCTGTTGCAG (site GCATGGACTCT)” the “recombinant barcode read abundance (log10)” value was 0.224. With “GCAGGGTCTTGGGTTCTAACCTGTTGCCT (site GCAAGATCTAG)” the “recombinant barcode read abundance (log10)” value was 0.158. In the case of “GCAGGGTCTTGGGTTCTAACCTGTTGCCT (site GCAGGGTCTAG)”, the “recombinant barcode read abundance (log10)” value is reported as 1.45. With “GCATCGTCTTGGGTTCTAACCTGTTGCCT (site GCATCGTCTAG)” the “recombinant barcode read abundance (log10)” value was 0.649. With “GCATCGTCTTGGGTTCTAACCTGTTGCCT (site GCCTCGTCTAG)” the “recombinant barcode read abundance (log10)” value was 0.0437. With “GCATCGTCTTGGGTTCTAACCTGTTGCCT (site GCGTCGTCTAG)” the “recombinant barcode read abundance (log10)” value was 0.0424. In the case of “GCATCGTCTTGGGTTCTAACCTGTTGCCT (site GCTTCGTCTAG)”, the “recombinant barcode read abundance (log10)” value is reported as 0.0989. For “GCCAACCCTTGGGTTCTAACCTGTTGCTT (site GCCAACCCTAA)”, the “recombinant barcode read abundance (log10)” value was 0.0414. In the case of “GCCAACCCTTGGGTTCTAACCTGTTGCTT (site GCCAACCCTAC)”, the “recombinant barcode read abundance (log10)” value is reported as 0.0528. With “GCCAACCCTTGGGTTCTAACCTGTTGCTT (site GCCAACCCTAG)” the “recombinant barcode read abundance (log10)” value was 0.412. For “GCCAACCCTTGGGTTCTAACCTGTTGCTT (site GCCAACCCTAT)”, the “recombinant barcode read abundance (log10)” value was 0.39. In the case of “GCCATCACTTGGGTTCTAACCTGTTGCCT (site GCCATAACTAG)”, the “recombinant barcode read abundance (log10)” value is reported as 0.00743. In the case of “GCCATCACTTGGGTTCTAACCTGTTGCCT (site GCCATCACTAG)”, the “recombinant barcode read abundance (log10)” value is reported as 0.112. For “GCCATCACTTGGGTTCTAACCTGTTGCCT (site GCCATGACTAG)”, the “recombinant barcode read abundance (log10)” value was 0.152. With “GCCATCACTTGGGTTCTAACCTGTTGCCT (site GCCATTACTAG)” the “recombinant barcode read abundance (log10)” value was 0.12. With “GCCATCTCTTGGGTTCTAACCTGTTGCCT (site GCCATCTCTAG)” the “recombinant barcode read abundance (log10)” value was 0.0476. In the case of “GCCATCTCTTGGGTTCTAACCTGTTGCCT (site GCCGTCTCTAG)”, the “recombinant barcode read abundance (log10)” value is reported as 0.0992. In the case of “GCCATGTCTTGGGTTCTAACCTGTTGCCT (site GCCATGTCTAG)”, the “recombinant barcode read abundance (log10)” value is reported as 0.502. In the case of “GCCATGTCTTGGGTTCTAACCTGTTGCCT (site GTCATGTCTAG)”, the “recombinant barcode read abundance (log10)” value is reported as 0.0158. For “GCCCATCCTTGGGTTCTAACCTGTTGCTA (site GCCCATCCTTA)”, the “recombinant barcode read abundance (log10)” value was 1.36. For “GCCCATCCTTGGGTTCTAACCTGTTGCTA (site TAGTGAGCTCG)”, the “recombinant barcode read abundance (log10)” value was 0.222. In the case of “GCCCCATCTTGGGTTCTAACCTGTTGCCT (site GCCCAATCTAG)”, the “recombinant barcode read abundance (log10)” value is reported as 0.00703. In the case of “GCCCCATCTTGGGTTCTAACCTGTTGCCT (site GCCCCATCTAG)”, the “recombinant barcode read abundance (log10)” value is reported as 0.601. In the case of “GCCCCATCTTGGGTTCTAACCTGTTGCCT (site GCCCGATCTAG)”, the “recombinant barcode read abundance (log10)” value is reported as 0.37. For “GCCCCATCTTGGGTTCTAACCTGTTGCCT (site GCCCTATCTAG)”, the “recombinant barcode read abundance (log10)” value was 0.384. For “GCCCCGCCTTGGGTTCTAACCTGTTGCAG (site GCCACGCCTCT)”, the “recombinant barcode read abundance (log10)” value was 0.319. With “GCCCCGCCTTGGGTTCTAACCTGTTGCAG (site GCCCCGCCTCT)” the “recombinant barcode read abundance (log10)” value was 1.02.
